Test results taken from patent publication US8586591B2, “Aminopyrazine derivative and medicine” (Nippon Shinyaku Co., Ltd., priority 2009, dated 2013).
Counter-ions that a name gives are not always drawn. Like-named read-outs stand apart in the source and are kept apart here.

Columns and labels:
[1] = molecular target: T1, JAK3 tyrosine kinase (Homo sapiens, UniProt P52333); test: Test 1: inhibitory activity to JAK3 tyrosine kinase (ELISA); type: biochemical; conditions: 25 μM ATP in substrate solution, 30° C. for 1 hour, n=2
T1 construct: purchased Carnabioscience Co
T1 sequence (P52333 1-1124): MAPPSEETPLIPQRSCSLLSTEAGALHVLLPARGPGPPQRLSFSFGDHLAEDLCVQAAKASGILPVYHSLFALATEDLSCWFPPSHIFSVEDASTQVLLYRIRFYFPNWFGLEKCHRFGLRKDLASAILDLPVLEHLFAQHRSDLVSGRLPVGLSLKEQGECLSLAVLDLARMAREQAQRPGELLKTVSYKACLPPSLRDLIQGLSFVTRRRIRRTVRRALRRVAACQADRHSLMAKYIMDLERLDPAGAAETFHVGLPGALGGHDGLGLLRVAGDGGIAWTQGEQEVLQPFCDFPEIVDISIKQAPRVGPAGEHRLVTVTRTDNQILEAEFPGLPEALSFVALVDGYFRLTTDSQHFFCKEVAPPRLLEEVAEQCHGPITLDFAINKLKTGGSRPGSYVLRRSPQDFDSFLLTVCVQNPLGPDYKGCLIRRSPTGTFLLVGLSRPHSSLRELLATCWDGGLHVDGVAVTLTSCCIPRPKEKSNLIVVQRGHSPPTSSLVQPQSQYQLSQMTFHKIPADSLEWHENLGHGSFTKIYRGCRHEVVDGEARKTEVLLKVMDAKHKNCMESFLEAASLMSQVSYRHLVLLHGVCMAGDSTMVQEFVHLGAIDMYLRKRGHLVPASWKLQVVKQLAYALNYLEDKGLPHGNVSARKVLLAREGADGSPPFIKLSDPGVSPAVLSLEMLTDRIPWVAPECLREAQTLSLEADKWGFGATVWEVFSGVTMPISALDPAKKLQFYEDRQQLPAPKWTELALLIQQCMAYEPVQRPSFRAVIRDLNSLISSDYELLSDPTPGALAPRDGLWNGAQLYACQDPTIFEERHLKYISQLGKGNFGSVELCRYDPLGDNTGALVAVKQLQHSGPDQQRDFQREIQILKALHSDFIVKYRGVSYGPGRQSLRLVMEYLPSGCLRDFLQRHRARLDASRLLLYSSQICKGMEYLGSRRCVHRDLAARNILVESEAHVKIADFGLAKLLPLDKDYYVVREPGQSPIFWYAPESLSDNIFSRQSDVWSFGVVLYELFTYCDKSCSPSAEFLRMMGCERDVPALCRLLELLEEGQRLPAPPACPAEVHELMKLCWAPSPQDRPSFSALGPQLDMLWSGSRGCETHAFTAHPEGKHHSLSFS
Procedure, shortened: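 ELISA of JAK3 kinase activity with absorbance read at 450 nm. Compounds were tested from DMSO dilution series at 100-fold the measurement concentrations (1000–0.01 μM), diluted up to 20 times in assay buffer, against a DMSO negative control. IC50 was estimated by non-linear regression of absorbance.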

[2] = molecular target: T2, JAK2 tyrosine kinase (Homo sapiens, UniProt O60674); test: Test 1: inhibitory activity to JAK2 tyrosine kinase (ELISA); type: biochemical; conditions: 25 μM ATP in substrate solution, 30° C. for 1 hour, n=2
T2 construct: purchased Carnabioscience Co
T2 sequence (O60674 whole entry): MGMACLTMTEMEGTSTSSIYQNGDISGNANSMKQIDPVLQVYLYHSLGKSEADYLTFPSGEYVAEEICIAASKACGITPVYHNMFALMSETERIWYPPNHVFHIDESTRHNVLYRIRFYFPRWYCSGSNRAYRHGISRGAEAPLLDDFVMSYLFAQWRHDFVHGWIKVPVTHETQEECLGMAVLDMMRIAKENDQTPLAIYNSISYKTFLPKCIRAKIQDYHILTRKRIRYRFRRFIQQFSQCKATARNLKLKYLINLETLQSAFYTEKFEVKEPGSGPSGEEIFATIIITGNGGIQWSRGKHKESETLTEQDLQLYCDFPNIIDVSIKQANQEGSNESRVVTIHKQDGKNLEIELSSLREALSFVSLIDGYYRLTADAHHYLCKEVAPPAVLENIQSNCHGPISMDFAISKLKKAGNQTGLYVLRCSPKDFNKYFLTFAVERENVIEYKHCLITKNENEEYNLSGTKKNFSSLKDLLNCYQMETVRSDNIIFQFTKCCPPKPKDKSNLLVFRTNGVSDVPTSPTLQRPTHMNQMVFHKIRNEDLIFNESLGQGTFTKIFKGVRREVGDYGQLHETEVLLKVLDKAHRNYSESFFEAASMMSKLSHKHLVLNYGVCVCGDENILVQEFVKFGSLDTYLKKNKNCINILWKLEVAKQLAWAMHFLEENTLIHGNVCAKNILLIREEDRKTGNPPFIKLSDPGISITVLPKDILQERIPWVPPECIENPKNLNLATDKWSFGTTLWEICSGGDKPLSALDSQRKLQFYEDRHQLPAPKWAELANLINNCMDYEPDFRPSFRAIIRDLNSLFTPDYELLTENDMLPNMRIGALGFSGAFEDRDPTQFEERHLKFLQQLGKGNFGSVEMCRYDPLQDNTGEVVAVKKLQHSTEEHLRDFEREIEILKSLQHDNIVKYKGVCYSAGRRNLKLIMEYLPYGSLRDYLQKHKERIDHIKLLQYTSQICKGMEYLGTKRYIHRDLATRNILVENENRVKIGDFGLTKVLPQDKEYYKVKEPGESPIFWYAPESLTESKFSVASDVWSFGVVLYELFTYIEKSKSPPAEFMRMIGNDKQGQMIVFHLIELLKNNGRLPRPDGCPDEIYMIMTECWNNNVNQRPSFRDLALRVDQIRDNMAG
Procedure, shortened: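 Human JAK2 (diluted to 0.75 nM before addition) phosphorylated a biotinylated peptide on streptavidin plates for 1 h at 30 °C. The substrate mix held 625 nM peptide, 25 μM ATP and 25 mM MgCl2 in 15 mM Tris pH 7.5, 0.01% Tween-20 and 1 mM DTT. Phosphotyrosine was detected by HRP antibody/TMB at 450 nm, and IC50 was obtained by non-linear regression; duplicates were run.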

[3] = molecular target: BaF3 cells into which JAK2 V617F gene was introduced (Homo sapiens, UniProt O60674, V617F, cells depend on it); test: Test 2: growth inhibitory action against variant JAK2 expressed cells (MTT method); type: cell-based; conditions: incubation for 3 days, triplicate, read-out: concentration of the test material which inhibited 50% of the cell growth (IC50)
Sequence of BaF3 cells into which JAK2 V617F gene was introduced (O60674 whole entry V617F): as the sequence (O60674 whole entry) above, with V617F counted along it
Experimental: Test 2: Growth inhibitory action against variant JAK2 expressed cells
BaF3 cells into which JAK2 V617F gene was introduced ([…]) were inoculated on a 96-well plate in an amount of 1×10^3 cells/well and allowed to stand in a CO2 incubator. Next day, the test material was added to the cells. The test material was serially diluted with DMSO to give 10 mM, 6 mM, 3 mM, 1 mM, 600 μM, 300 μM, 100 μM, 60 μM, 30 μM, or 10 μM solution. This was diluted 100 times with distilled water to give 100 μM, 60 μM, 30 μM, 10 μM, 6 μM, 3 μM, 1 μM, 600 nM, 300 nM, or 100 nM solution. This solution of test material was added to the well in an amount of 10 μl/well. As a negative control, 1% DMSO solution was added to the well in an amount of 10 μl/well. In the above operation, the final concentration of the test material became 10 μM, 6 μM, 3 μM, 1 μM, 600 nM, 300 nM, 100 nM, 60 nM, 30 nM, 10 nM, or 0 nM (0.1% DMSO solution). The addition of the test material solution to each well was made in triplicate.
After continuous incubation for 3 days, the viable count was determined by an MTT method. The MTT method was carried out as follows. First, 10 μl each of solution containing 5 mg/ml of MTT (3-(4,5-dimethylthiazol-2-yl)-2,5-diphenyltetrazolium bromide) was added to each well. The plate was allowed to stand in a CO2 incubator for 4 hours, and then 100 μl of 0.04N HCl/2-propanol solution was added to each well to stop the reaction. The generated MTT-formazan was dissolved well with a multi-channel pipette, and the absorbance at 595 nm was measured with reference to that at 655 nm (Thermo Co.; Multiskan FC). Non-linear regression analysis was made by means of a SAS system (SAS Institute Inc.), and the concentration (IC50) of the test material which inhibited 50% of the cell growth was estimated.

IC50 [1] [nM]	IC50 [2] [nM]	GI50 [3] [nM]	GI50 ([3]; maleate) [nM]	SMILES
42	0.52	89	–	CC(=O)N[C@@H]1CCN(c2cc(Nc3cnccn3)nc(N[C@@H](C)c3ccc(F)cc3)n2)C1 [Example 27, N—((R)-1-{2-[(S)-1-(4-Fluorophenyl)ethylamino]-6-(pyrazin-2-ylamino)pyrimidin-4-}pyrrolidin-3-yl)acetamide hydrochloride]
16	1.1	94	–	C[C@H](Nc1nc(Nc2cnccn2)cc(N2CC(N3CCN(C)CC3)C2)n1)c1ccc(F)cc1 [Example 224, (S)—N^2-[1-(4-Fluorophenyl)ethyl]-6-[3-(4-methylpiperazin-1-yl)azetidin-1-yl]-N^4-(pyrazin-2-yl)pyrimidine-2,4-diamine]
11	0.65	57	–	C[C@H](Nc1nc(Nc2cnccn2)cc(N2CC(N3CCOCC3)C2)n1)c1ccc(F)cc1 [Example 223, (S)—N^2-[1-(4-Fluorophenyl)ethyl]-6-(3-morpholinoazetidin-1-yl)-N^4-(pyrazin-2-yl)pyrimidine-2,4-diamine]
180	1.2	77	–	CC(C)CNC(=O)c1cc(Nc2cnccn2)nc(N[C@@H](C)c2ccc(F)cc2)c1 [Example 170, (S)-2-[1-(4-Fluorophenyl)ethylamino]-N-isobutyl-6-(pyrazin-2-ylamino) isonicotinamide]
26	0.41	–	87	C[C@H](Nc1nc(Nc2cnccn2)cc(N2CCOCC2)n1)c1ccc(F)cc1 [Example 31, (S)—N^2-[1-(4-Fluorophenyl)ethyl]-6-morpholino-N^4-(pyrazin-2-yl)pyrimidine-2,4-diamine maleate]
8.9	0.27	93	–	C[C@H](Nc1nc(Nc2cnccn2)cc(N2CCN(S(C)(=O)=O)CC2)n1)c1ccc(F)cc1 [Example 65, (S)—N^2-[1-(4-Fluorophenyl)ethyl]-6-[4-(methylsulfonyl)piperazin-1-yl]-N^4-(pyrazin-2-yl)pyrimidine-2,4-diamine hydrochloride]
67	0.69	64	–	C[C@H](Nc1nc(Nc2cnccn2)cc(N2CCC3(CC2)COC(=O)O3)n1)c1ccc(F)cc1 [Example 112, (S)-8-{2-[1-(4-Fluorophenyl)ethylamino]-6-(pyrazin-2-ylamino)pyrimidin-4-yl}-1,3-dioxo-8-azaspiro[4.5]decan-2-one]
19	1.1	89	–	C[C@H](Nc1nc(Nc2cnccn2)cc(N2CC(CO)C2)n1)c1ccc(F)cc1 [Example 228, (S)-(1-{2-[1-(4-Fluorophenyl)ethylamino]-6-(pyrazin-2-ylamino)pyrimidin-4-yl}azetidin-3-yl)methanol]
13	0.69	64	–	C[C@H](Nc1nc(Nc2cnccn2)cc(N2CC(N3CCC(O)CC3)C2)n1)c1ccc(F)cc1 [Example 225]
24	0.79	81	–	C[C@H](Nc1nc(Nc2cnccn2)cc(N2CCC(C(N)=O)CC2)n1)c1ccc(F)cc1 [Example 56, (S)-1-{2-[1-(4-Fluorophenyl)ethylamino]-6-(pyrazin-2-ylamino)pyrimidin-4-yl}piperidine-4-carboxamide hydrochloride]
43	0.49	70	–	CC(=O)N[C@H]1CCN(c2cc(Nc3cnccn3)nc(N[C@@H](C)c3ccc(F)cc3)n2)C1 [Example 2, N-{(S)-1-[2-{[(S)-1-(4-Fluorophenyl)ethyl]amino-}-6-(pyrazin-2-ylamino)pyrimidin-4-yl]pyrrolidin-3-yl}acetamide hydrochloride]
32	0.55	88	–	CC(=O)NCC1CN(c2cc(Nc3cnccn3)nc(N[C@@H](C)c3ccc(F)cc3)n2)C1 [Example 232, (S)—N-[(1-{2-[1-(4-Fluorophenyl)ethylamino]-6-(pyrazin-2-ylamino)pyrimidin-4-yl}azetidin-3-yl)methyl]acetamide]
39	0.42	90	–	C[C@H](Nc1cc(-c2ccc(O)nc2)cc(Nc2cnccn2)n1)c1ccc(F)cc1 [Example 7, (S)-2′-[1-(4-Fluorophenyl)ethylamino]-6′-(pyrazin-2-ylamino)-3,4′-bipyridin-6-ol hydrochloride]
350	1.6	63	–	C[C@H](Nc1cc(C(=O)NCC2CC2)cc(Nc2cnccn2)n1)c1ccc(F)cc1 [Example 167, (S)—N-Cyclopropylmethyl-2-[1-(4-fluorophenyl)ethylamino]-6-(pyrazin-2-ylamino) isonicotinamide]
28	0.71	80	–	C[C@H](Nc1nc(Nc2cnccn2)cc(N2CCC(NS(C)(=O)=O)C2)n1)c1ccc(F)cc1 (stereo partly drawn) [Example 60, N-(1-{2-[(S)-1-(4-Fluorophenyl)ethylamino]-6-(pyrazin-2-ylamino)pyrimidin-4-yl}pyrrolidin-3-yl)methanesulfonamide hydrochloride]
110	1.2	94	–	C[C@H](Nc1cc(-c2cn[nH]c2)cc(Nc2cnccn2)n1)c1ccc(F)cc1 [Example 28, (S)—N^2-[1-(4-Fluorophenyl)ethyl]-N^6-(pyrazin-2-yl)-4-(1H-pyrazol-4-yl)pyridine-2,6-diamine]
21	0.69	55	–	C[C@H](Nc1nc(Nc2cnccn2)cc(N2CCOCC2)n1)c1ccc(F)cc1 [Example 20, (S)—N^2-[1-(4-Fluorophenyl)ethyl]-6-morpholino-N^4-(pyrazin-2-yl)pyrimidine-2,4-diamine]
27	0.55	60	–	C[C@H](Nc1nc(Nc2cnccn2)cc(N2CCC(O)(CO)CC2)n1)c1ccc(F)cc1 [Example 105, (S)-1-{2-[1-(4-Fluorophenyl)ethylamino]-6-(pyrazin-2-ylamino)pyrimidin-4-yl}-4-(hydroxymethyl)piperidin-4-ol]
